Laboratory results from publication PMC10478600, “Aryl derivatives of 3H-1,2-benzoxaphosphepine 2-oxides as inhibitors of cancer-related carbonic anhydrase isoforms IX and XII” (Journal of Enzyme Inhibition and Medicinal Chemistry, 2023).

Experiments:
CA II [1] = target: T1, CA II (Homo sapiens, UniProt P00918); test: stopped-flow CO2 hydrase assay; format: biochemical; conditions: read-out: KI (μM)^a^,^b / CA I
T1 construct: gene CA2; recombinant
Source text: stopped-flow CO2 hydrase assay on CA II

CA I [2] = target: T2, CA I (Homo sapiens, UniProt P00915); test: stopped-flow CO2 hydrase assay; format: biochemical; conditions: read-out: KI (μM)^a^,^b / CA I
T2 construct: gene CA1; recombinant
Source text: stopped-flow CO2 hydrase assay on CA I

CA II [3] = target: T1, CA II; test: biochemical; parameters: stopped-flow CO2 hydration assay of recombinant human CA isoforms, inhibition constant; conditions: 6 h incubation
Protocol: (§1) The CA-catalysed CO2 hydration activity was assayed by using an applied photophysics stopped-flow apparatus as reported in previous papers from our group. All CA isoforms were recombinant proteins, obtained as reported earlier. The newly synthesised compounds 7–10 were investigated for their CA inhibition activity against four pharmacologically relevant human CA isoforms—the ubiquitous cytosolic CA I and II as well as the cancer-associated CA IX and XII. In this study, CA I and CA II are considered off-target isoforms, that were tested in order to explore the selectivity of inhibitors towards the CA IX and CA XII isoforms. The clinically utilised acetazolamide (AAZ) was used as a reference drug. The following structure-activity relationship (SAR) can be deduced from the inhibition data reported in Table 1: It is worthwhile to underline here that a 6-h incubation of the enzyme and each compound 7–10 solutions is essential. When the incubation period of 15 min was used for assaying the inhibition, as generally done for the other types of CA inhibitors, only a weak inhibition was observed (data not shown). Furthermore, it appears to be the case with coumarins and related bioisosteres. […]

CA I [4] = target: T2, CA I; test: biochemical; parameters: stopped-flow CO2 hydration assay of recombinant human CA isoforms, inhibition constant; conditions: 6 h incubation
Protocol: as §1

T2 sequence (P00915 2-261): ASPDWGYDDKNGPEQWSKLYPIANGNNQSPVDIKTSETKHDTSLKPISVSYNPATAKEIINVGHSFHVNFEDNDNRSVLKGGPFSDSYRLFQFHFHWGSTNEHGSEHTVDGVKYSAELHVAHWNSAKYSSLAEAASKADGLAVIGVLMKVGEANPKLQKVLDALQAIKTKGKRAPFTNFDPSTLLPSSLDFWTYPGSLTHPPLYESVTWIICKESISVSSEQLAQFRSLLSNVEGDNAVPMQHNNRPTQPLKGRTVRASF

Compound: 2-Hydroxy-7-(o-tolyl)-3H-benzo[f][1,2]oxaphosphepine 2-oxide [8i]
- Ki (CA II [1]; […] h incubation): > 100 µM
- Ki (CA I [2]; […] h incubation): > 100 µM

Compound: 7–(3-Fluorophenyl)-2-hydroxy-3H-benzo[f][1,2]oxaphosphepine 2-oxide [8h]
- Ki (CA II [1]; 6 h incubation): > 100 µM
- Ki (CA I [2]; 6 h incubation): > 100 µM

Compound: O=P1(O)CC=Cc2ccc(Br)cc2O1 [7b, 8-Bromo-2-hydroxy-3H-benzo[f][1,2]oxaphosphepine 2-oxide]
- Ki (CA II [1]): > 100 µM
- Ki (CA I [2]): > 100 µM

Compound: O=P1(O)CC=Cc2cc(-c3ccccc3)ccc2O1 [8a, 2-Hydroxy-7-phenyl-3H-benzo[f][1,2]oxaphosphepine 2-oxide]
- Ki (CA II [1]): > 100 µM
- Ki (CA I [2]): > 100 µM

Compound: COc1ccc(-c2ccc3c(c2)C=CCP(=O)(O)O3)cc1 [8b, 2-Hydroxy-7–(4-methoxyphenyl)-3H-benzo[f][1,2]oxaphosphepine 2-oxide]
- Ki (CA II [1]): > 100 µM
- Ki (CA I [2]): > 100 µM

Compound: CCOC(=O)c1ccc(-c2ccc3c(c2)C=CCP(=O)(O)O3)cc1 [8c, Ethyl 4–(2-hydroxy-2-oxido-3H-benzo[f][1,2]oxaphosphepin-7-yl)benzoate]
- Ki (CA II [1]): > 100 µM
- Ki (CA I [2]): > 100 µM

Compound: O=P1(O)CC=Cc2cc(-c3ccc(F)cc3)ccc2O1 [8d, 7–(4-Fluorophenyl)-2-hydroxy-3H-benzo[f][1,2]oxaphosphepine 2-oxide]
- Ki (CA II [1]): > 100 µM
- Ki (CA I [2]): > 100 µM

Compound: O=P1(O)CC=Cc2cc(-c3ccc(Cl)cc3)ccc2O1 [8e, 7–(4-Chlorophenyl)-2-hydroxy-3H-benzo[f][1,2]oxaphosphepine 2-oxide]
- Ki (CA II [1]): > 100 µM
- Ki (CA I [2]): > 100 µM

Compound: O=P1(O)CC=Cc2cc(-c3ccc(C(F)(F)F)cc3)ccc2O1 [8f, 2-Hydroxy-7–(4-(trifluoromethyl)phenyl)-3H-benzo[f][1,2]oxaphosphepine 2-oxide]
- Ki (CA II [1]): > 100 µM
- Ki (CA I [2]): > 100 µM

Compound: O=P1(O)CC=Cc2cc(-c3cc(Cl)cc(Cl)c3)ccc2O1 [8g, 7–(3,5-Dichlorophenyl)-2-hydroxy-3H-benzo[f][1,2]oxaphosphepine 2-oxide]
- Ki (CA II [1]): > 100 µM
- Ki (CA I [2]): > 100 µM

Compound: O=P1(O)CC=Cc2cc(-c3cccc(F)c3)ccc2O1 [8h, 7-(3-Fluorophenyl)-2-hydroxy-3H-benzo[f][1,2]oxaphosphepine 2-oxide]
- Ki (CA II [3]): > 100 µM
- Ki (CA I [4]): > 100 µM

Compound: COC(=O)c1cccc(-c2ccc3c(c2)C=CCP(=O)(O)O3)c1 [8j, Methyl 3–(2-hydroxy-2-oxido-3H-benzo[f][1,2]oxaphosphepin-7-yl)benzoate]
- Ki (CA II [1]): > 100 µM
- Ki (CA I [2]): > 100 µM

Compound: O=[N+]([O-])c1cccc(-c2ccc3c(c2)C=CCP(=O)(O)O3)c1 [8k, 2-Hydroxy-7–(3-nitrophenyl)-3H-benzo[f][1,2]oxaphosphepine 2-oxide]
- Ki (CA II [1]): > 100 µM
- Ki (CA I [2]): > 100 µM

Compound: CC(C)(C)c1ccc(-c2ccc3c(c2)C=CCP(=O)(O)O3)cc1 [8l, 7–(4-(tert-Butyl)phenyl)-2-hydroxy-3H-benzo[f][1,2]oxaphosphepine 2-oxide]
- Ki (CA II [1]): > 100 µM
- Ki (CA I [2]): > 100 µM

Compound: O=P1(O)CC=Cc2ccc(-c3ccccc3)cc2O1 [9a, 2-Hydroxy-8-phenyl-3H-benzo[f][1,2]oxaphosphepine 2-oxide]
- Ki (CA II [1]): > 100 µM
- Ki (CA I [2]): > 100 µM

Compound: COc1ccc(-c2ccc3c(c2)OP(=O)(O)CC=C3)cc1 [9b, 2-Hydroxy-8–(4-methoxyphenyl)-3H-benzo[f][1,2]oxaphosphepine 2-oxide]
- Ki (CA II [1]): > 100 µM
- Ki (CA I [2]): > 100 µM

Compound: CCOC(=O)c1ccc(-c2ccc3c(c2)OP(=O)(O)CC=C3)cc1 [9c, Ethyl 4–(2-hydroxy-2-oxido-3H-benzo[f][1,2]oxaphosphepin-8-yl)benzoate]
- Ki (CA II [1]): > 100 µM
- Ki (CA I [2]): > 100 µM

Compound: O=P1(O)CC=Cc2ccc(-c3ccc(Cl)cc3)cc2O1 [9d, 8–(4-Chlorophenyl)-2-hydroxy-3H-benzo[f][1,2]oxaphosphepine 2-oxide]
- Ki (CA II [1]): > 100 µM
- Ki (CA I [2]): > 100 µM

Compound: O=P1(O)CC=Cc2ccc(-c3cc(Cl)cc(Cl)c3)cc2O1 [9e, 8–(3,5-Dichlorophenyl)-2-hydroxy-3H-benzo[f][1,2]oxaphosphepine 2-oxide]
- Ki (CA II [1]): > 100 µM
- Ki (CA I [2]): > 100 µM

Compound: O=[N+]([O-])c1ccccc1-c1ccc2c(c1)OP(=O)(O)CC=C2 [9f, 2-Hydroxy-8–(2-nitrophenyl)-3H-benzo[f][1,2]oxaphosphepine 2-oxide]
- Ki (CA II [1]): > 100 µM
- Ki (CA I [2]): > 100 µM

Compound: O=P1(O)CC=Cc2cccc(-c3ccccc3)c2O1 [10a, 2-Hydroxy-9-phenyl-3H-benzo[f][1,2]oxaphosphepine 2-oxide]
- Ki (CA II [1]): > 100 µM
- Ki (CA I [2]): > 100 µM

Compound: COc1ccc(-c2cccc3c2OP(=O)(O)CC=C3)cc1 [10b, 2-Hydroxy-9–(4-methoxyphenyl)-3H-benzo[f][1,2]oxaphosphepine 2-oxide]
- Ki (CA II [1]): > 100 µM
- Ki (CA I [2]): > 100 µM

Compound: CCOC(=O)c1ccc(-c2cccc3c2OP(=O)(O)CC=C3)cc1 [10c, Ethyl 4–(2-hydroxy-2-oxido-3H-benzo[f][1,2]oxaphosphepin-9-yl)benzoate]
- Ki (CA II [1]): > 100 µM
- Ki (CA I [2]): > 100 µM

Compound: O=P1(O)CC=Cc2cccc(-c3ccc(Cl)cc3)c2O1 [10d, 9–(4-Chlorophenyl)-2-hydroxy-3H-benzo[f][1,2]oxaphosphepine 2-oxide]
- Ki (CA II [1]): > 100 µM
- Ki (CA I [2]): > 100 µM

Compound: O=P1(O)CC=Cc2cccc(-c3cc(Cl)cc(Cl)c3)c2O1 [10e, 9–(3,5-Dichlorophenyl)-2-hydroxy-3H-benzo[f][1,2]oxaphosphepine 2-oxide]
- Ki (CA II [1]): > 100 µM
- Ki (CA I [2]): > 100 µM

Compound: O=[N+]([O-])c1ccccc1-c1cccc2c1OP(=O)(O)CC=C2 [10f, 2-Hydroxy-9–(2-nitrophenyl)-3H-benzo[f][1,2]oxaphosphepine 2-oxide]
- Ki (CA II [1]): > 100 µM
- Ki (CA I [2]): > 100 µM
